Source: US7229987B2, “Multicyclic compounds for use as melanin concentrating hormone antagonists in the treatment of obesity and diabetes” (Eli Lilly and Company, priority 2002, dated 2007)
Counter-ions that a name gives are not always drawn.

melting point [°C] | SMILES
55 to 55.5 | CN(C)CCCOc1ccc(-c2nnc(CSCCOc3ccccc3OC(F)(F)F)o2)cc1 [Example 275, [3-(4-{5-[2-(2-trifluoromethoxy-phenoxy)-ethylsulfanylmethyl]-[1,3,4]oxadiazol-2-yl}-phenoxy)-propyl]-dimethyl-amine]
71.5 to 72 | CN(C)CCCOc1ccc(-c2nnc(CSCCOCc3ccccc3)o2)cc1 (as salt: maleate) [Example 282, (3-{4-[5-(2-phenylmethoxy-ethylsulfanylmethyl)-[1,3,4]oxadiazol-2-yl]-phenoxy}-propyl)-dimethyl-amine]
38 to 42 | CN(C)CCCCNC(=O)c1cccc(-c2nnc(CSCCOc3ccccc3)o2)c1 [Example 61, N-(4-dimethylamino-butyl)-3-[5-(2-phenoxy-ethylsulfanylmethyl)-[1,3,4]oxadiazol-2-yl]-benzamide]
67 to 68 | N#CCCCOc1ccc(-c2nnc(CSCCOc3ccccc3)o2)cc1 [Example 264, 4-{4-[5-(2-phenoxy-ethylsulfanylmethyl)-[1,3,4]oxadiazol-2-yl]-phenoxy}-butyronitrile]
94 to 100 | CN(C)CCNC(=O)c1ccc(-c2nnc(CSCCOc3ccccc3)o2)cc1 [Example 54, N-(2-dimethylaminoethyl)-4-[5-(2-phenoxyethylsulfanylmethyl)-[1,3,4]oxadiazol-2-yl]-benzamide]
35 to 38 | c1ccc(OCCSCc2ncc(-c3ccc(OCCN4CCCCCC4)cc3)o2)cc1 [Example 265, 1-(2-{4-[2-(2-phenoxy-ethylsulfanylmethyl)-oxazol-5-yl]-phenoxy}-ethyl)-azepane]
94 to 96 | CN(C)CCCNc1ccc(-c2nnc(CSCCOc3ccccc3)o2)cn1 [Example 259, N,N-Dimethyl-N′-{5-[5-(2-phenoxy-ethylsulfanylmethyl)-[1,3,4]oxadiazol-2-yl]-pyridin-2-yl}-propane-1,3-diamine]
85 | c1ccc(OCCSCc2nnc(-c3ccc(OCCCN4CCSCC4)cc3)o2)cc1 [Example 82, 4-(3-{4-[5-(2-phenoxy-ethylsulfanylmethyl)-[1,3,4]oxadiazol-2-yl]-phenoxy}-propyl)-thiomorpholine]
80 to 90 | c1ccc(OCCSCc2nnc(-c3ccc(OCc4ccncc4)cc3)o2)cc1 [Example 98, 4-{4-[5-(2-phenoxy-ethylsulfanylmethyl)-[1,3,4]oxadiazol-2-yl]-phenoxymethyl}-pyridine]
65 | c1ccc(OCCSCc2nnc(-c3ccc(OCCCN4CCOCC4)cc3)o2)cc1 [Example 87, 4-(3-{4-[5-(2-phenoxy-ethylsulfanylmethyl)-[1,3,4]oxadiazol-2-yl]-phenoxy}-propyl)-morpholine]
150 to 154 | CN(C)CCNC(=O)Nc1ccc(-c2cnc(COCc3cc4ccccc4o3)o2)cc1 [Example 254, 1-{4-[2-(benzofuran-2-ylmethoxymethyl)-oxazol-5-yl]-phenyl}-3-(2-dimethylamino-ethyl)-urea]
60 | c1ccc(OCCSCc2nnc(-c3ccc(OCCN4CCSCC4)cc3)o2)cc1 [Example 90, 4-(2-{4-[5-(2-phenoxy-ethylsulfanylmethyl)-[1,3,4]oxadiazol-2-yl]-phenoxy}-ethyl)-thiomorpholine]
69 to 70 | CN(C)CCCOc1ccc(-c2nnc(CSCCOc3ccccc3)o2)cn1 [Example 288, dimethyl-(3-{5-[5-(2-phenoxy-ethylsulfanylmethyl)-[1,3,4]oxadiazol-2-yl]-pyridin-2-yloxy}-propyl)-amine]
64 | CN(C)CCNC(=O)c1cccc(-c2nnc(CSCCOc3ccccc3)o2)c1 [Example 60, N-(2-Dimethylamino-ethyl)3-[5-(2-phenoxy-ethylsulfanylmethyl)-[1,3,4]oxadiazol-2-yl]-benzamide]
58 | c1ccc(OCCSCc2nnc(-c3ccc(OCCCCN4CCSCC4)cc3)o2)cc1 [Example 94, 4-(4-{4-[5-(2-phenoxy-ethylsulfanylmethyl)-[1,3,4]oxadiazol-2-yl]-phenoxy}-butyl)-thiomorpholine]
39 to 40 | CN(C)CCCCCCCOc1ccc(-c2nnc(CSCCOc3ccccc3)o2)cc1 [Example 71, dimethyl-(7-{4-[5-(2-phenoxy-ethylsulfanylmethyl)-[1,3,4]oxadiazol-2-yl]-phenoxy}-heptyl)-amine]
125 to 129 | O=C1N(CCN2CCCC2)CCN1c1ccc(-c2nnc(CSCCOc3ccccc3)o2)cc1 [Example 257, 1-{4-[5-(2-phenoxy-ethylsulfanylmethyl)-[1,3,4]oxadiazol-2-yl]-phenyl}-3-(2-pyrrolidin-1-yl-ethyl)-imidazolidin-2-one]
103 to 104 | COc1cc(-c2nnc(CSCCOc3ccccc3)o2)cc(OC)c1OCCCN(C)C.O=C(O)/C=C\C(=O)O [Example 285, (3-{2,6-dimethoxy-4-[5-(2-phenoxy-ethylsulfanylmethyl)-[1,3,4]oxadiazol-2-yl]-phenoxy}-propyl)-dimethyl-amine; maleic acid salt]
30 to 35 | NCCCOc1ccc(-c2nnc(CSCCOc3ccccc3)o2)cc1 [Example 84, 3-{4-[5-(2-phenoxy-ethylsulfanylmethyl)-[1,3,4]oxadiazol-2-yl]-phenoxy}-propylamine]
40 | c1ccc(OCCSCc2nnc(-c3ccc(OCCN4CCCCCC4)cc3)o2)cc1 [Example 86, 1-(2-{4-[5-(2-phenoxy-ethylsulfanylmethyl)-[1,3,4]oxadiazol-2-yl]-phenoxy}-ethyl)-azepane]
116 to 118 | CN(C)CCCOc1ccc(-c2nnc(CCOCCOc3ccccc3)o2)cc1 (as salt: oxalate) [Example 215, Dimethyl-[3-(4-{5-[2-(2-phenxoyethoxy)ethyl]-[1,3,4]oxadiazol-2-yl}phenoxy)propyl]amine]
60 to 65 | CN(C)CCCNC(=O)c1ccccc1-c1nnc(CSCCOc2ccccc2)o1 [Example 65, N-(3-dimethylamino-propyl)-2-[5-(2-phenoxy-ethylsulfanylmethyl)-[1,3,4]oxadiazol-2-yl]-benzamide]
50 | c1ccc(OCCSCc2nnc(-c3ccc(OCCCN4CCCCCC4)cc3)o2)cc1 [Example 83, 1-(3-{4-[5-(2-phenoxy-ethylsulfanylmethyl)-[1,3,4]oxadiazol-2-yl]-phenoxy}-propyl)-azepane]
136 to 139 | CN(C)CCCNC(=S)Nc1ccc(-c2nnc(CSCCOc3ccccc3)o2)cc1 [Example 118, 1-(3-dimethylamino-propyl)-3-{4-[5-(2-phenoxy-ethylsulfanylmethyl)-[1,3,4]oxadiazol-2-yl]-phenyl}-thiourea]
35 to 38 | c1ccc(OCCSCc2nnc(-c3ccc(OCCCCN4CCCCCC4)cc3)o2)cc1 [Example 89, 1-(4-{4-[5-(2-phenoxy-ethylsulfanylmethyl)-[1,3,4]oxadiazol-2-yl]-phenoxy}-butyl)-azepane]

SMILES | melting point [°C]
c1ccc(OCCSCc2nnc(-c3ccc(OCCCCN4CCCC4)cc3)o2)cc1 [Example 80, 2-(2-phenoxy-ethylsulfanylmethyl)-5-[4-(4-pyrrolidin-1-yl-butoxy)-phenyl]-[1,3,4]oxadiazole] | 45
